Test results: US20260116874A1, “HETEROAROMATIC INDOLESULFONAMIDES” (SEED Therapeutics, Inc., priority 2023, published 2026)
Converted amounts (≈) assume the structure as drawn. Read-outs that look alike come from different tables or passages of the source.

How the values were obtained:
[1] = Telencephalon concentrations after oral administration; type: in vivo, female BALB/c mice; settings: for AUC(0-t) / Cmax: mouse, 20 mg/kg, telencephalon, female BALB/c mice, Table 8
[2] = tested on: HCT116 colorectal cells; assay: Cell viability assay (CellTiter-Glo) in HCT116 cells; type: cell-based; settings: Homo sapiens
Method: HCT116 colorectal cells were used in these experiments. HCT116 cells were obtained from ATCC. The CellTiter-Glo® Luminescent Cell Viability Assay Reagent was obtained from Promega.
Into a 96-well plate, 3000 HCT116 cells were seeded with 100 μL of media (McCoy's 5A Medium supplemented with 10% FBS, 100 units penicillin, and 100 μg streptomycin per mL) 24h before the experiment. For compound treatment, the liquid handling system-Pico machine was used to prepare all the compounds. Each master plate contained serial dilution of 2 compounds, including the control compound E7820. 10 mM compound stock was added to each well of the assay plate to give final concentrations of […], 0.003, 0.002 and 0 μM. Each concentration was tested in triplicate. After 72h, cell viability was determined using CellTiter-Glo Luminescent Cell Viability Assay Reagent following the manufacturer's recommended protocol. Briefly, equilibrate the assay plate and its contents at room temperature for approximately 30 minutes. 100 μL of CellTiter-Glo reagent was added to each well of the assay plate and the contents were mixed for 2 minutes at 500 rpm on an orbital shaker to induce cell lysis (Fisherbrand). The plate was incubated at room temperature for 10 minutes to stabilize luminescent signal. Then the plate was immediately placed in a plate reader (PerkinElmer Multimode Plate Reader Envision2105) and the luminescence signal (0.5 second per well integration time) was determined. IC50 values were calculated using Graphpad Prism 9 software.
Cell viability assays were performed to compare the potency of Compound 1 to Compound 143.

[3] = target: T1, MDR1 (Homo sapiens, UniProt P08183); assay: MDCK-MDR1 permeability / efflux assay; type: in vitro ADME, canine; settings: dog; for Papp A→B at 2 h, 1 µM: MDCK-MDR1, pH 7.4, MDCK cells, apical to basolateral
T1 construct: expressed in transfected cells; host or cells: MDCK-MDR1 cells (MDCK host)
Method: To prepare transport buffer (HBSS with 10 mM HEPES, pH 7.4), 2.383 g of HEPES and 0.35 g sodium hydrogen carbonate was accurately weighed and added into 900 mL of pure water, then sonicated to dissolve the content. Into the solution was transferred 100 mL of 10×HBSS, and the solution was placed on a stirrer. The pH of the solution was slowly adjusted with sodium hydroxide to 7.4, followed with filtering.
MDCK-MDR1 plate(s) were removed from the incubator. The monolayer was washed the monolayer twice with pre-warmed HBSS (10 mM HEPES, pH 7.4). Then the plate(s) were incubated at 37° C. for 30 minutes.
Propranolol was used as the high permeability marker. Digoxin was used as the substrate of […] (MDR1). Stock solutions of test compound(s) and digoxin in DMSO at 0.2 mM were prepared and diluted with HBSS (10 mM HEPES, pH 7.4) to get 1 μM working solutions. Stock solutions of propranolol in DMSO at 1 mM was prepared and diluted with HBSS (10 mM HEPES, pH 7.4) to get 5 μM working solutions.
To determine the rate of drug transport in the apical to basolateral direction, 125 μL of the working solution was added to the Transwell insert (apical compartment), and a 50 μL sample was immediately transferred from the apical compartment to 200 μL quenching solvents (acetonitrile with 100 nM alprazolam, 200 nM caffeine, 200 nM labetalol and 100 nM tolbutamide) in a new 96-well plate as the initial donor sample (A-B). The plate was shaken at 1000 rpm for 10 minutes. The wells in the receiver plate (basolateral compartment) were filled with 235 μL of transport buffer. All incubations were performed in duplicate.
To determine the rate of drug transport in the basolateral to apical direction, 285 μL of the 1 μM working solution was added to the receiver plate wells (basolateral compartment), and a 50 μL sample was immediately transferred from the basolateral compartment to 200 μL quenching solvents (acetonitrile with 100 nM alprazolam, 200 nM caffeine, 200 nM labetalol and 100 nM tolbutamide) in a new 96-well plate as the initial donor sample (B-A). Shake the plate at 1000 rpm 10 minutes. The Transwell insert (apical compartment) was filled with 75 μL of transport buffer. The apical to basolateral direction and the basolateral to apical direction were done at the same time.
The Transwell insert plate was inserted into the basolateral plate, transferred into the incubator and incubated at 37° C. for 2 hours.
At the end of the incubation, 50 μL samples from donor sides (apical compartment for Ap→Bl flux, and basolateral compartment for Bl→Ap flux) and receiver sides (basolateral compartment for Ap→Bl flux, and apical compartment for Bl→Ap flux) were transferred to wells of a new 96-well plate, followed by the addition of 4 volume of quenching solvents (acetonitrile with 100 nM alprazolam, 200 nM caffeine, 200 nM labetalol and 100 nM tolbutamide). Samples were Vortexed for 10 minutes and then centrifuged at 3,220 g for 40 minutes. An aliquot of 100 μL of the supernatant was mixed with an appropriate volume of ultra-pure water before LC-MS/MS analysis.
To determine the Lucifer yellow leakage after 2-hour transport period, Lucifer yellow working solutions were prepared by diluting the stock solution with HBSS (10 mM HEPES, pH 7.4) to reach the final concentration of 100 μM. To the apical compartment, 100 μL of the Lucifer yellow solution were added. The plate(s) were incubated at 37° C. for 30 minutes and 80 μL was directly removed from the apical and basolateral wells and transferred to new 96 wells plates. Lucifer yellow fluorescence (to monitor monolayer integrity) was measured in a fluorescence plate reader at 485 nm excitation and 530 nm emission.

[4] = General solubility protocol (PBS, pH 7.4); type: physicochemical; settings: PBS buffer, aqueous buffer, kinetic from dmso stock, pH 7.4, 25° C.
Method: Into a 96-well rack, 15 μL of stock solution (10 mM) of each sample was placed. Into each vial of a cap-less Solubility Sample plate 485 μL of buffer was added. The assay was performed in duplicate. To each vial one stir stick was added and each vial was sealed using a molded PTFE/Silicone plug. The Solubility Sample plate was then transferred to an Eppendorf Thermomixer Comfort plate shaker and shake at 25° C. at 1100 RPM for 2 hours. […] Using a vacuum manifold, all the samples were filtered. An aliquot of 5 μL was taken from the filtrate and 5 μL blank DMSO followed by addition of 490 μL of a mixture of H2O and acetonitrile containing an internal standard (1:1). The dilution factor may be changed according to the solubility value and the LC/MS signal response.

[5] = HCT-116, 72h, CellTiter-Glo, read-out: HCT116 Assay (IC50)
[6] = HCT-116, FIG. 5, read-out: IC50 for inhibiting cell growth in HCT116 colorectal cells
[7] = MDCK-MDR1, pH 7.4, MDCK cells, Table 6, read-out: MDCK Permeability Efflux Ratio
[8] = MDCK-MDR1, pH 7.4, MDCK-MDR1, 1 μM, 2 hours, Table 3, read-out: MDCK-MDR1 Efflux ratio

T1 sequence (P08183 whole entry): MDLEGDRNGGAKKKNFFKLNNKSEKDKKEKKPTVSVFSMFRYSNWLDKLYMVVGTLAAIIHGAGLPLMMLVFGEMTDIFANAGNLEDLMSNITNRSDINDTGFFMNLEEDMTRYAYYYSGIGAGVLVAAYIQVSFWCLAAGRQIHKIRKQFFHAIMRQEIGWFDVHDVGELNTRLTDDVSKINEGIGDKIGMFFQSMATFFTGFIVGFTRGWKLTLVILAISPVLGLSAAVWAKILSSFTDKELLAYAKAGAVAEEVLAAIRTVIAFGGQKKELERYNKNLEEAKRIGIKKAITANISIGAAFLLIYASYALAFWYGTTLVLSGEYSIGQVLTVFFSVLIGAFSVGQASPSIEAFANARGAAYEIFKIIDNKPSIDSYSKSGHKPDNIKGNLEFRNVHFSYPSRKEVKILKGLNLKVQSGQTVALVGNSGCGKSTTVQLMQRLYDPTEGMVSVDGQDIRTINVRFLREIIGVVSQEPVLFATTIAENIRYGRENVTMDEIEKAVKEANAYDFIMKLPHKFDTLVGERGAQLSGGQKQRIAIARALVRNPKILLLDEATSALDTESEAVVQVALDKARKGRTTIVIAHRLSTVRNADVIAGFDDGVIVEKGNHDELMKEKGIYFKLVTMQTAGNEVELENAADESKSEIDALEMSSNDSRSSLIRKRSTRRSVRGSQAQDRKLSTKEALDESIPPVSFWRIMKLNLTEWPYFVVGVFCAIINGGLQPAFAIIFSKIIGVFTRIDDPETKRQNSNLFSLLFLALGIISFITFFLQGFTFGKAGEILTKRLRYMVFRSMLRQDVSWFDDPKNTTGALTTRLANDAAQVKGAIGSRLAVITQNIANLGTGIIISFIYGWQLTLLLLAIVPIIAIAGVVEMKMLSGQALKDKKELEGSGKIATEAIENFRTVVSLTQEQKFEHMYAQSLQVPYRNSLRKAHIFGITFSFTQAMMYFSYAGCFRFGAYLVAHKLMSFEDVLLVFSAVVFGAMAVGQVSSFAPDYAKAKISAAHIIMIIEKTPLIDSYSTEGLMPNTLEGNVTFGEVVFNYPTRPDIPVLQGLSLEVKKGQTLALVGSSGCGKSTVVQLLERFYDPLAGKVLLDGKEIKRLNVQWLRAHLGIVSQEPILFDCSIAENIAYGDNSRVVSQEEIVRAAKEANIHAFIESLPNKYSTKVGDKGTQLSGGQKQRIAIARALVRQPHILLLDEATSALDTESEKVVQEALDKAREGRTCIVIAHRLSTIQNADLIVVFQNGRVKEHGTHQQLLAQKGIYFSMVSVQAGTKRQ

increase in telencephalon AUC compared to E7820 ([1]; compared to E7820)	AUC(0-t) [1]	Cmax [1]	IC50 [2, 5]	IC50 [2, 6]	efflux ratio at 2 h, 1 µM [3, 7]	efflux ratio at 2 h, 1 µM [3, 8]	Papp A→B at 2 h, 1 µM ([3]; Table 6)	solubility at 2 h [4]	increase in telencephalon AUC compared to Compound 1 ([1]; compared to Compound 1)	Compound
2 fold	774 ng·h/mL	193 ng/mL	< 0.5 µM	0.259 µM	26	25.5	1.9 ×10⁻⁶ cm/s	51.5 µM (≈ 17.1 µg/mL)		Cc1ncc(S(=O)(=O)Nc2ccc(C)c3c(C#N)c[nH]c23)s1 [Compound 1, N-(3-cyano-4-methyl-1H-indol-7-yl)-2-methyl-thiazole-5-sulfonamide]
	2060 ng·h/mL	373 ng/mL	< 0.5 µM	0.255 µM	12		2.9 ×10⁻⁶ cm/s		2.5 fold	[2H]C([2H])([2H])c1ncc(S(=O)(=O)Nc2ccc(C)c3c(C#N)c[nH]c23)s1 [Compound 143, N-(3-cyano-4-methyl-1H-indol-7-yl)-2-(methyl-d3)thiazole-5-sulfonamide]
					30	29.9	1.1 ×10⁻⁶ cm/s	80.7 µM (≈ 27.2 µg/mL)		Cc1ccc(NS(=O)(=O)c2cccc(C#N)c2)c2[nH]cc(C#N)c12 [Compound E7820, E7820, reference compound]
